Earlier results, collected in PMC6005628, “Molecular genetic characteristics of influenza A virus clinically isolated during 2011‐2016 influenza seasons in Korea” (Influenza and Other Respiratory Viruses, 2018).

Test system: NA protein with single I222V/M substitution

CCOC(=O)C1=C[C@@H](OC(CC)CC)[C@H](NC(C)=O)[C@@H](N)C1 [oseltamivir]
resistance associated with NA substitution: marginal levels of resistance
